{"source": "patent US6251903A", "about": "“Alkyl, azido, alkoxy, and fluoro-substituted and fused quinoxalinediones and the use thereof as glycine receptor antagonist” (priority 2000, dated 2001)", "key": {"rats": {"system": "rats", "assay": "rat model of permanent focal cerebral ischemia, continuous intravenous infusion", "assay_type": "in vivo, male Sprague-Dawley rats", "description": "Male Sprague-Dawley rats (290-320 g) were […] and maintained under anesthesia with ±2% of halothane. […] The common carotid arteries (CCA) were isolated, and a loose silk ligature Was placed around each CCA. A vertical skin incision was made between the left orbit and the auditory canal, posterior part of zygoma removed and small opening (2.0/2.5 mm) drilled dorsorostrally to the foramen ovale under constant saline irrigation. The dura was opened with a microsurgical hook and the brain gently retracted with a fine spatula to expose the bifurcation of the internal carotid artery and the middle cerebral artery. The ipsilateral CCA was ligated and the MCA coagulated from its origin to the olfactory tract Two hours after MCA occlusion, the clip from the contralateral CCA was removed.\nNDMQX was dissolved in 0.1 M L-arginine and 5% glucose and infused as a slow 10 mg/kg i.v. bolus (immediately after MCA occlusion) followed by 7 mg/kg/h infusion for 22 hours.\nBrains were sliced into 2 mm blocks and stained with tetrazolium red (2,3,5-triphenyl tetrazolium chloride). The areas of brain damage were assessed using an image analyzer (Image-1, Universal Imaging Corporation, PA) to determine the volume of cortical and subcortical infarction by integration of areas and the distance between each level.\nFor the drug administration, the NMCQX was dissolved in 0.05 Tris and 5% glucose. It was infused as a slow 2 mg/kg i.v. bolus (immediately after MCA occlusion) followed by 1.4 mg/kg/h infusion for 22 hours."}, "[1]": {"molecular_target": "NMDA receptor glycine sites", "assay": "electrophysiological assay, cloned rat NMDA receptors expressed in Xenopus oocytes", "assay_type": "cell-based", "settings": "Table II; from electrophysiology using Xenopus oocytes", "from_the_text": "(§1) The binding affinities of quinoxaline-2,3-diones at NMDA receptor glycine sites also were estimated by electrophysiological assays with either cloned rat NMDA receptors expressed in Xenopus oocytes, or non-NMDA receptors expressed in oocytes by whole rat brain poly(A)^+ RNA. […] For NMDA receptors Ki values were approximated by averaging values at three subtype combinations (NR1A/NR2A, NR1A/NR2B, and NR1A/NR2C)."}, "glycine binding site": {"molecular_target": "glycine binding site (Rattus norvegicus, UniProt P35439)", "assay": "affinity for the glycine binding site / glycine/NMDA receptor (Ki; method not stated)", "from_the_text": "as §1"}, "mice [2]": {"system": "mice", "assay": "MES test with i.p. NMCQX or NDMQX (Example 51)", "assay_type": "in vivo, Swiss Webster mice", "settings": "NMCQX 1.25-7.50 mg/kg, NDMQX 5.00-15.00 mg/kg", "description": "In the MES test, mice were injected i.p. with NMCQX (1.25-7.50 mg/kg) or NDMQX (5.00-15.00 mg/kg). Control mice were injected with Tris (0.05 M) or Arginine (0.1 M), respectively. Seizures were then induced by applying a rectangular pulse, 50 mA, 60 pulses/sec, 0.8 msec pulse width, and 0.2 sec train length, at the time of the drugs' peak effect."}, "mice [3]": {"system": "mice", "assay": "effect of chronic NDMQX on morphine antinociception in the formalin test", "assay_type": "in vivo, male Swiss Webster mice", "settings": "40 mg/kg i.p., 8 days"}, "mice [4]": {"system": "mice", "assay": "formalin test for pain in Swiss Webster mice", "assay_type": "in vivo, male Swiss Webster mice", "settings": "for time spent licking, early phase / time spent licking, late phase (15-50 min): mean ± s.e.m.", "description": "The effects of the glycine receptor antagonists of the present invention on chronic pain can be evaluated as follows. Male Swiss/Webster mice weighing 25-35 grams are housed five to a cage with free access to food and water and are maintained on a 12 hour light cycle (light onset at 0800h). The glycine receptor antagonist is dissolved in DMSO at a concentration of 140 and 5-40 mg/mL, respectively. DMSO is used as vehicle control. All drugs=are injected intraperitoneally (1 μl/g). […] Mice are observed in a plexiglass cylinder, 25 cm in diameter and 30 cm in height. The plantar surface of one hindpaw is injected subcutaneously with 20 μl of 5% formalin. The degree of pain is determined by measuring the amount of time the animal spends licking the formalin-injected paw during the following time intervals: 0-5' (early phase); 5'-10', 10'-15' and 15'-50' (late phase). To test whether the glycine/excitatory amino acid antagonists prevent chronic pain in the test animals, vehicle (DMSO) or drugs dissolved in vehicle at doses of 1 mg/kg to 40 mg/kg are injected intraperitoneally 30 minutes prior to the formalin injection. For each dose of drug or vehicle control at least six animals are used.\nBriefly, after a 60 minute accommodation period in plexiglass jars, mice were weighed and injected intraperitoneally (i.p.) with NDMQX (1-20 mg/kg; N=6-10 mice/dose). Controls were injected with DMSO (1 mL/kg, i.p.). Thirty min later, mice were injected with formalin (20 μl of 5% solution) just under the skin of the right hind paw, transferred to the plexiglass jars, and immediately observed for licking or biting of the injected paw for 1 hr. The amount of time that each mouse spent licking the injected paw was measured at 0-5 min (early phase) and 15-50 min (late phase).\nIn the formalin test, following a 1 hr accommodation period, mice were injected i.p. with NMCQX (1.00-10.00 mg/kg, N=7-13 mice/dose) or NDMQX (0.5-20.00 mg/kg, N=8-9 mice/dose). Control mice were injected with Tris (0.5 M) or Bis-Tris (0.2 M), respectively. Mice were then injected with formalin. […] The amount of time that each mouse spent licking and/or biting the injected paw was recorded for 1 hr."}, "mice [5]": {"system": "mice", "assay": "anticonvulsant activity in maximum electroshock seizure (MES) experiments in mice", "assay_type": "in vivo, male Swiss/Webster mice", "settings": "route not stated", "description": "The seizure stimulus parameters were: 50 mA, 60 Hz, rectangular pulse, width 0.8 msec, duration 200 msec. Tonic hind limb extension observed after application of the electrical stimulus was recorded as occurrence of seizure. The drug was applied i.v. as an aqueous Tris (Tromethamine) solution."}, "mice [6]": {"system": "mice", "assay": "morphine tolerance in the formalin test (8 days chronic)", "assay_type": "in vivo, male Swiss Webster mice", "description": "A modification of a previously described method was used (Hunskaar et al., J. Neurosci. Meth. 14:69-76 (1985)). Briefly, mice were placed in Plexiglas jars for at least 1 hr for accommodation to the experimental condition. Formalin (20 μl of 5% formaldehyde solution in saline) was injected into the dorsal surface of the right hind paw using a microsyringe (Hamilton Co., Reno, Nev.) with a 27-gauge needle. Mice were then transferred to the Plexiglas jars and immediately observed for licking or biting of the injected paw for 1 hr. The amount of time that each mouse spent licking or biting the injected paw was recorded for every 5-min period for a 1 hr observation period.\n[…] Mice were immediately, within a minute, injected with either saline or morphine (20 mg/kg, s.c.). On day 9, mice were weighed and after a 1-hr accommodation period-injected with morphine (4 mg/kg, s.c.). Thirty min later, all mice were tested in the formalin test (see above)."}, "[7]": {"assay": "penetration of the blood/brain barrier, access to the central nervous system", "assay_type": "in vivo", "settings": "inferred from Ki and MES ED50"}}, "note": "Entries after “also recorded” stand apart in the source; their conditions may differ.", "data": [{"smiles": "Cc1cc2nc(O)c(O)nc2c([N+](=O)[O-])c1C", "note": "[NDMQX, 6,7-Dimethyl-5-nitro-1,4-dihydroquinoxaline-2,3-dione]", "values": [{"measurement": "reduction in cortical infarct volume", "setting": "rats; 10 mg/kg i.v. bolus then 7 mg/kg/h for 22 hours, p<0.05", "value": 71, "unit": "%"}, {"measurement": "neuroprotection", "setting": "rats; rat focal ischemia", "value": "significant neuroprotection"}, {"measurement": "Ki", "setting": "[1]", "value": 0.043, "unit": "µM"}, {"measurement": "Ki", "setting": "glycine binding site", "value": 0.043, "unit": "µM"}, {"measurement": "times less active than 6,7-dichloro-5-nitro-1,4-dihydroquinoxaline-2,3-dione at the glycine/NMDA receptor", "setting": "glycine binding site; from Ki", "value": "about 10 times"}, {"measurement": "protection from electroshock seizures", "setting": "mice [2]", "value": "dose-dependently protected mice from generalized clonic-tonic seizures"}, {"measurement": "effect on morphine-induced antinociception", "setting": "mice [3]", "value": "did not alter the antinociceptive effect of morphine; also recorded: not due to potentiation of morphine-induced antinociception"}, {"measurement": "time spent licking, early phase", "setting": "mice [4]; 1.0 mg/kg i.p.", "value": "72.57 ± 14.2", "unit": "sec per 5 min period"}, {"measurement": "time spent licking, late phase (15-50 min)", "setting": "mice [4]; 1.0 mg/kg i.p.", "value": "37.59 ± 5.37", "unit": "sec per 5 min period"}, {"measurement": "time spent licking, early phase", "setting": "mice [4]; 2.5 mg/kg i.p.", "value": "78.50 ± 10.0", "unit": "sec per 5 min period"}, {"measurement": "time spent licking, late phase (15-50 min)", "setting": "mice [4]; 2.5 mg/kg i.p.", "value": "26.38 ± 5.43", "unit": "sec per 5 min period"}, {"measurement": "time spent licking, early phase", "setting": "mice [4]; 5 mg/kg i.p.", "value": "32.83 ± 8.28", "unit": "sec per 5 min period"}, {"measurement": "time spent licking, late phase (15-50 min)", "setting": "mice [4]; 5 mg/kg i.p.", "value": "10.24 ± 2.66", "unit": "sec per 5 min period"}, {"measurement": "time spent licking, early phase", "setting": "mice [4]; 10 mg/kg i.p.", "value": "29.17 ± 14.9", "unit": "sec per 5 min period"}, {"measurement": "time spent licking, late phase (15-50 min)", "setting": "mice [4]; 10 mg/kg i.p.", "value": "10.19 ± 2.44", "unit": "sec per 5 min period"}, {"measurement": "time spent licking, early phase", "setting": "mice [4]; 15 mg/kg i.p.", "value": "6.83 ± 1.85", "unit": "sec per 5 min period"}, {"measurement": "time spent licking, late phase (15-50 min)", "setting": "mice [4]; 15 mg/kg i.p.", "value": "3.19 ± 1.37", "unit": "sec per 5 min period"}, {"measurement": "time spent licking, early phase", "setting": "mice [4]; 20 mg/kg i.p.", "value": "4.33 ± 2.85", "unit": "sec per 5 min period"}, {"measurement": "time spent licking, late phase (15-50 min)", "setting": "mice [4]; 20 mg/kg i.p.", "value": "0.05 ± 0.05", "unit": "sec per 5 min period"}, {"measurement": "antinociceptive effect in the formalin test", "setting": "mice [4]; i.p., early and late phases", "value": "attenuated the mean time spent licking in a dose-dependent manner in both phases; also recorded: significant analgesic effect in both phases; also recorded: dose-dependent antinociceptive effect in both phases"}, {"measurement": "ED50 as an anticonvulsant in the MES experiment in mice", "setting": "mice [5]", "value": "4 to 5", "unit": "mg/kg"}, {"measurement": "effect on morphine tolerance", "setting": "mice [6]; 2 mg/kg", "value": "no effect on morphine tolerance"}, {"measurement": "effect on morphine tolerance", "setting": "mice [6]; 20 mg/kg", "value": "attenuated"}, {"measurement": "effect on morphine tolerance", "setting": "mice [6]; 40 mg/kg", "value": "completely abolished"}, {"measurement": "morphine tolerance (words, overall)", "setting": "mice [6]; 8 days, early and late phases", "value": "Tolerance did not develop in mice treated with NDMQX followed by morphine; also recorded: blocked morphine tolerance in both phases of the formalin test"}, {"measurement": "times better in crossing the blood brain barrier than 6,7-dichloro-5-nitro-1,4-dihydroquinoxaline-2,3-dione", "setting": "[7]", "value": "about 10 times"}]}]}
